{
  "source": "patent US9849104B2",
  "about": "(Gemphire Therapuetics Inc., priority 2015, dated 2017)",
  "key": {"[1]": {"test": "Musculoskeletal adverse events, study A4141001", "format": "in vivo, human"}, "[2]": {"tested_on": "STAM model of non-alcoholic steatohepatitis (NASH)", "protocol": "Telmisartan (Micardis®) was purchased from Boehringer Ingelheim GmbH (Germany) and dissolved in pure water.\nTelmisartan was administered at a dose of 10 mg/kg once daily.\nEight-hour fasting blood glucose was measured in whole blood using Life Check (EIDIA Co. Ltd., Japan). For plasma biochemistry, eight-hour fasting blood was collected in polypropylene tubes with anticoagulant (Novo-Heparin, Mochida Pharmaceutical, Japan) and centrifuged at 1,000×g for 15 minutes at 4° C. The supernatant was collected and stored at −80° C. until use. Plasma insulin levels were quantified by Ultra Sensitive Mouse Insulin ELISA kit (Morinaga Institute of Biological Science, Inc., Japan).\nOn the day of termination, non-fasting blood glucose was measured in whole blood using Life Check. For plasma biochemistry, non-fasting blood was collected in polypropylene tubes with anticoagulant (Novo-Heparin) and centrifuged at 1,000×g for 15 minutes at 4° C. The supernatant was collected and stored at −80° C. until use. Plasma ALT, AST, ALP, GGT, BUN, creatinine and total bilirubin levels were measured by FUJI DRI-CHEM 7000 (Fujifilm Corporation, Japan). Plasma ketone body levels were quantified by EnzyChrom™ Ketone Body Assay Kit (BioAssay Systems, USA).\nLiver samples were homogenized in chloroform-methanol (2:1, v/v) and incubated overnight at room temperature. After washing with chloroform-methanol-water (8:4:3, v/v/v), the extracts were evaporated to dryness, and dissolved in isopropanol. Liver triglyceride content was measured by Triglyceride E-test (Wako Pure Chemical Industries). […]\nStatistical analyses were performed using Bonferroni Multiple Comparison Test on GraphPad Prism 6 (GraphPad Software Inc., USA). […] Results were expressed as mean±SD.\nThe viability, clinical signs and behavior were monitored daily. Body weight was recorded before the treatment. […] The animals were sacrificed by exsanguinations through direct cardiac puncture under isoflurane anesthesia (Pfizer Inc.) at 9 weeks of age."}, "[3]": {"details": "male, Wistar, rat, in vivo, po, 10 mg/kg", "protocol": "Dose solution was prepared by dissolving labeled drug in 0.45 mL ethanol and 4.05 mL 0.5% methylcellulose in water. […] Final specific activity of dose solution was 10.37 μCi/mg.\nMale Wistar rats with an average weight of 202 g were fasted overnight prior to dosing. […] Carcasses were rapidly frozen in dry ice/hexane mixture and prepared for whole body sectioning and autoradiography. Sections of 50 μm thickness were air dried at −20° C. and applied to BioMax scientific imaging film (Eastman Kodak, Rochester, N.Y.) or phosphor imaging plates for autoradiographic exposure (Molecular Dynamics, Sunnyvale, Calif.). Carbon-14 standards (American Radiolabeled Chemicals, St. Louis) were included on representative films and plates for calibration of the analyzer. Processed films were digitized with the analyzer scanner (Loats INQUIRY image analysis system, Loats Associates, Westminster, Md.), and radioactivity remaining in tissues was determined by quantitative video densitometric analysis of digital images. Imaging plates were scanned after 1-week exposure. Resulting electronic images were used for preliminary evaluation of distribution."}, "[4]": {"details": "A4141001, patient type IIa + IIb"}},
  "note": "Where two headings read alike, the source gives them in different places.",
  "data": [
    {"smiles": "CC(C)c1c(C(=O)Nc2ccccc2)c(-c2ccccc2)c(-c2ccc(F)cc2)n1CC[C@@H](O)C[C@@H](O)CC(=O)O", "note": "[Atorvastatin, reference compound]", "values": [
      {"measurement": "% = the percent of patients experiencing a musculoskeletal adverse event", "setting": "[1]; A4141001, patient type IIa", "value": 9.1, "unit": "%"},
      {"measurement": "No = the number of muscle skeletal adverse events", "setting": "[1]; A4141001, patient type IIa", "value": 2},
      {"measurement": "% = the percent of patients experiencing a musculoskeletal adverse event", "setting": "[1]; [4]", "value": 13.5, "unit": "%"},
      {"measurement": "No = the number of muscle skeletal adverse events", "setting": "[1]; [4]", "value": 7},
      {"measurement": "% = the percent of patients experiencing a musculoskeletal adverse event", "setting": "[1]; A4141001, patient type IIb", "value": 16.7, "unit": "%"},
      {"measurement": "No = the number of muscle skeletal adverse events", "setting": "[1]; A4141001, patient type IIb", "value": 5}
    ]},
    {"smiles": "CCCc1nc2c(C)cc(-c3nc4ccccc4n3C)cc2n1Cc1ccc(-c2ccccc2C(=O)O)cc1", "note": "[Telmisartan, reference compound]", "values": [
      {"measurement": "NAFLD Activity score, NAS (mean ± SD)", "setting": "[2]; STAM NASH mice, 10 mg/kg PO QD 6-9 wks, 10 mg/kg", "value": "significant reduction"},
      {"measurement": "mortality during the treatment period", "setting": "[2]; STAM NASH mice, 10 mg/kg PO QD, before reaching Day 21", "value": "one mouse was found dead"},
      {"measurement": "Fasting blood glucose (mean ± SD)", "setting": "[2]; STAM NASH mice, 10 mg/kg PO QD, Day 18, 8 hours of fasting, listed as telemisartan, 10 mg/kg", "value": "significant increase"},
      {"measurement": "Liver triglyceride (mean ± SD)", "setting": "[2]; STAM NASH mice, 10 mg/kg PO QD, Day 21, listed as telemisartan, 10 mg/kg", "value": "significant decrease"},
      {"measurement": "Non-fasting blood glucose (mean ± SD)", "setting": "[2]; STAM NASH mice, 10 mg/kg PO QD, termination (Day 21), listed as telemisartan, 10 mg/kg", "value": "significant increase"},
      {"measurement": "fibrosis area compared with the Vehicle in NASH group", "setting": "[2]; STAM NASH mice, all treatment groups (gemcabene 30, 100, 300 mg/kg; telmisartan 10 mg/kg)", "value": "significantly decreased"},
      {"measurement": "Plasma ALP (mean ± SD)", "setting": "[2]; mouse, in vivo, po, 10 mg/kg", "value": "significant increases"},
      {"measurement": "Plasma BUN (mean ± SD)", "setting": "[2]; mouse, in vivo, po, 10 mg/kg", "value": "significant increase"},
      {"measurement": "Plasma GGT (mean ± SD)", "setting": "[2]; mouse, in vivo, po, 10 mg/kg", "value": "1 ± 0", "unit": "U/L"},
      {"measurement": "Plasma creatinine (mean ± SD)", "setting": "[2]; mouse, in vivo, po, 10 mg/kg", "value": "0.1 ± 0.0", "unit": "mg/dL"}
    ]},
    {"smiles": "CC(C)(CCCCOCCCCC(C)(C)C(=O)O)C(=O)O", "note": "[[14C] gemcabene]", "values": [
      {"measurement": "radioequivalents remaining in Adrenal", "setting": "[3]; 1 h", "value": 6.05, "unit": "μg equivalents/g"},
      {"measurement": "radioequivalents remaining in Blood", "setting": "[3]; 1 h", "value": 15.46, "unit": "μg equivalents/g"},
      {"measurement": "radioequivalents remaining in Brain", "setting": "[3]; 1 h", "value": 0.41, "unit": "μg equivalents/g"},
      {"measurement": "radioequivalents remaining in Kidney", "setting": "[3]; 1 h", "value": 18.75, "unit": "μg equivalents/g"},
      {"measurement": "radioequivalents remaining in Liver", "setting": "[3]; 1 h", "value": 35.78, "unit": "μg equivalents/g"},
      {"measurement": "radioequivalents remaining in Lung", "setting": "[3]; 1 h", "value": 11.69, "unit": "μg equivalents/g"},
      {"measurement": "radioequivalents remaining in Muscle", "setting": "[3]; 1 h", "value": 1.35, "unit": "μg equivalents/g"},
      {"measurement": "radioequivalents remaining in Adrenal", "setting": "[3]; 4 h", "value": 4.76, "unit": "μg equivalents/g"},
      {"measurement": "radioequivalents remaining in Blood", "setting": "[3]; 4 h", "value": 13.65, "unit": "μg equivalents/g"},
      {"measurement": "radioequivalents remaining in Brain", "setting": "[3]; 4 h", "value": 0.47, "unit": "μg equivalents/g"},
      {"measurement": "radioequivalents remaining in Kidney", "setting": "[3]; 4 h", "value": 17.84, "unit": "μg equivalents/g"},
      {"measurement": "radioequivalents remaining in Liver", "setting": "[3]; 4 h", "value": 37.08, "unit": "μg equivalents/g"},
      {"measurement": "radioequivalents remaining in Lung", "setting": "[3]; 4 h", "value": 10.15, "unit": "μg equivalents/g"},
      {"measurement": "radioequivalents remaining in Muscle", "setting": "[3]; 4 h", "value": 1.40, "unit": "μg equivalents/g"},
      {"measurement": "radioequivalents remaining in Adrenal", "setting": "[3]; 8 h", "value": 4.29, "unit": "μg equivalents/g"},
      {"measurement": "radioequivalents remaining in Blood", "setting": "[3]; 8 h", "value": 9.75, "unit": "μg equivalents/g"},
      {"measurement": "radioequivalents remaining in Brain", "setting": "[3]; 8 h", "value": 0.43, "unit": "μg equivalents/g"},
      {"measurement": "radioequivalents remaining in Kidney", "setting": "[3]; 8 h", "value": 16.44, "unit": "μg equivalents/g"},
      {"measurement": "radioequivalents remaining in Liver", "setting": "[3]; 8 h", "value": 27.42, "unit": "μg equivalents/g"},
      {"measurement": "radioequivalents remaining in Lung", "setting": "[3]; 8 h", "value": 7.59, "unit": "μg equivalents/g"},
      {"measurement": "radioequivalents remaining in Muscle", "setting": "[3]; 8 h", "value": 0.99, "unit": "μg equivalents/g"},
      {"measurement": "radioequivalents remaining in Adrenal", "setting": "[3]; 24 h", "value": 1.42, "unit": "μg equivalents/g"},
      {"measurement": "radioequivalents remaining in Blood", "setting": "[3]; 24 h", "value": 4.69, "unit": "μg equivalents/g"},
      {"measurement": "radioequivalents remaining in Brain", "setting": "[3]; 24 h", "value": 0.24, "unit": "μg equivalents/g"},
      {"measurement": "radioequivalents remaining in Kidney", "setting": "[3]; 24 h", "value": 17.45, "unit": "μg equivalents/g"},
      {"measurement": "radioequivalents remaining in Liver", "setting": "[3]; 24 h", "value": 24.35, "unit": "μg equivalents/g"},
      {"measurement": "radioequivalents remaining in Lung", "setting": "[3]; 24 h", "value": 3.58, "unit": "μg equivalents/g"},
      {"measurement": "radioequivalents remaining in Muscle", "setting": "[3]; 24 h", "value": 0.45, "unit": "μg equivalents/g"},
      {"measurement": "radioequivalents remaining in Adrenal", "setting": "[3]; 48 h", "value": 0.22, "unit": "μg equivalents/g"},
      {"measurement": "radioequivalents remaining in Blood", "setting": "[3]; 48 h", "value": 0.44, "unit": "μg equivalents/g"},
      {"measurement": "radioequivalents remaining in Kidney", "setting": "[3]; 48 h", "value": 7.23, "unit": "μg equivalents/g"},
      {"measurement": "radioequivalents remaining in Liver", "setting": "[3]; 48 h", "value": 3.64, "unit": "μg equivalents/g"},
      {"measurement": "radioequivalents remaining in Lung", "setting": "[3]; 48 h", "value": 0.36, "unit": "μg equivalents/g"},
      {"measurement": "radioequivalents remaining in Kidney", "setting": "[3]; 96 h", "value": 0.83, "unit": "μg equivalents/g"},
      {"measurement": "radioequivalents remaining in Liver", "setting": "[3]; 96 h", "value": 0.24, "unit": "μg equivalents/g"}
    ]}
  ]
}
